As a reminder, the pIC50 is the IC50 on a negative log10 scale, so that one unit is a factor of ten. Higher therefore signals a small IC50. One may read the IC50 as the concentration that gives 50% inhibition.

In patent US5679674A (priority 1992, dated 1997) one finds ED50 and IC50 data, which are given here for nine compounds.

pIC50: −log10 of the molar value. Counter-ions that a name gives are not always drawn. Like-named read-outs stand apart in the source and are kept apart here.

Experiment [1] deals with p-Phenylquinone-induced agony (writhing response) in mice. The experiment in a line: animal or person. Type of experiment: in vivo, Male ddy mice. The settings on record: Mus musculus, sc, 0.25 h, read-out: Analgesic effect (ED50, μg/kg sc) Phenylquinone-induced agony test.
Experiment [2] concerns the target T1, k-receptor (Cavia porcellus, UniProt P41144).
T1 construct: The whole brain of male Hertley guinea pigs (Japan SLC); from tissue; host or cells: crude membranes of guinea pig whole brain without cerebellum (Hartley, printed 'Hertley', males)
The experiment in a line: biochemical. The settings on record: for IC50: read-out: Binding to the receptors (IC50, nM) k. Type of experiment: binding, guinea pig.

The target of experiment [3] is T2, μ-receptor (Cavia porcellus, UniProt A0ACM8Q262).
T2 construct: tritiated DAGO (DAMGO) displacement
More on the design: species or system guinea pig. The settings on record: read-out: Binding to the receptors (IC50, nM) μ.

Experiment [4] deals with p-Phenylquinone-induced agony (writhing response) in mice. The experiment in a line: p-Phenylquinone-induced agony test in mice (oral administration). In kind it is in vivo, Male ddy mice. The conditions noted are these: Mus musculus, 0.25 h, read-out: Analgesic effect (Oral Administration) (ED50, mg/kg) Phenylquinone-induced agony test. The procedure:
p-Phenylquinone-induced agony test in mice (oral administration)
According to the method of Siegmund et al. [Proc. Soc. Exptl. Biol. Med., 95, 729 (1957)], the title test was conducted. Male ddy mice (Japan SLC) each weighing about 20 g were fasted for about 16 hours from the day before the test and divided into groups each including from 5 to 10 mice.
A compound to be tested was dissolved in 0.5% tragacanth and administered orally. After 15 minutes, each 0.1 ml/mouse of 0.03% p-phenylquinone solution was injected intraperitoneally. During 5 to 10 minutes after injection, the number of agony reactions (writhing response) observed in each mouse was counted. Those mice showing 1/2 or less of the mean value of the numbers of agony reactions observed in the control mice injected with only physiological saline were regarded as analgesic-effective animals.

T1 sequence (P41144 whole entry): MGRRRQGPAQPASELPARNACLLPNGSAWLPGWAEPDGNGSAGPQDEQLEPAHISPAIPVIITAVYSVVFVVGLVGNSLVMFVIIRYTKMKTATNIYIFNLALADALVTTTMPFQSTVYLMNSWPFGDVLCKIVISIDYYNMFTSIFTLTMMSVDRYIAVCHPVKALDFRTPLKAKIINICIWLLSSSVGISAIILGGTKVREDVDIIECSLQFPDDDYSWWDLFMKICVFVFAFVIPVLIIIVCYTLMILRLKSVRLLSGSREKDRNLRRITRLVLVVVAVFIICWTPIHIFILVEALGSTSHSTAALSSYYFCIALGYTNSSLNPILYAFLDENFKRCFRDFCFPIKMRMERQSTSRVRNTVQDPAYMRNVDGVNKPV
T2 sequence (A0ACM8Q262 1-400): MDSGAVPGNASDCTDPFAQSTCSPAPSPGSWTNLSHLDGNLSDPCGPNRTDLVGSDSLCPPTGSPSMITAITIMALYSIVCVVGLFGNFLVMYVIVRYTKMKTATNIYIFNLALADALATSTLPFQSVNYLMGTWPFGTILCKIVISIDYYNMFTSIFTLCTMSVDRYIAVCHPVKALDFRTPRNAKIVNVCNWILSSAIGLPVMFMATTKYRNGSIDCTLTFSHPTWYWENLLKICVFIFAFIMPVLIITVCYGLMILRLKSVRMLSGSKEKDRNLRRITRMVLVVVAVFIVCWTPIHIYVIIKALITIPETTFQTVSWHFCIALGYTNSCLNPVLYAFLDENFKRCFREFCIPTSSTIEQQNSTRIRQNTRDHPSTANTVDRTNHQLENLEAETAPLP

As to `O=C1C[C@H](C(=O)N2CCSC[C@H]2CN2CCCC2)c2cc(Cl)c(Cl)cc21` [Example 2, (3R)-3-(1-Pyrrolidinylmethyl)-4-[(1S)-3-oxo-5,6-dichloro-1-indanecarbonyl]thiomorpholine hydrochloride], the ED50 in experiment [1] was determined as 0.6 µg/kg; in experiment [4], 0.031 mg/kg. Besides, in experiment [2], the negative logarithm of the IC50 (pIC50) was 9.34. Besides, in experiment [3], the IC50 came out at 330 nM.

`O=C([C@H]1CCc2cc(Cl)c(Cl)cc21)N1CCSC[C@@H]1CN1CCCC1` [Corresponding (3S, 1S)]: the ED50 in experiment [1] was 7800 µg/kg. In experiment [2], this compound showed a pIC50 of 6.04. The IC50 in experiment [3] stood at 15000 nM.

For the compound `O=C1CC[C@H](C(=O)N2CCSC[C@H]2CN2CCCCC2)c2cc(Cl)c(Cl)cc21` [Example 3, (3R)-3-(1-Piperidinylmethyl)-4-[(1S)-6,7-dichloro-4(3H)-oxo-1,2-dihydro-1-naphthoyl]thiomorpholine hydrochloride], the ED50 in experiment [1] turned out to be 13 µg/kg; in experiment [4] it was 0.29 mg/kg. For the same compound, the half-inhibitory concentration (IC50) in experiment [2] amounted to 1.7 nM; in experiment [3] it was 1800 nM.

In the case of `O=C([C@@H]1CCc2cc(Cl)c(Cl)cc21)N1CCSC[C@@H]1CN1CCCC1` [Corresponding (3S, 1R)], the ED50 in experiment [1] was 10900 µg/kg. This compound showed a negative-log IC50 (pIC50) in experiment [2] of 4.68. In experiment [3], the concentration for half-maximal inhibition (IC50) came to 12000 nM.

Consider `O=C1C[C@H](C(=O)N2CCSC[C@H]2CN2CCCC2)c2cc(Cl)c(Cl)cc21` (relative stereo) [Racemate Corresponding to Compound of Example 2], for which the ED50 in experiment [4] came to 0.79 mg/kg.

Regarding `O=C([C@H]1CCc2cc(Cl)c(Cl)cc21)N1CCSC[C@H]1CN1CCCC1` [Example 1, (3R)-3-(1-Pyrrolidinylmethyl)-4-[(1S)-(5,6-dichloro-1-indanecarbonyl]thiomorpholine hydrochloride], the ED50 in experiment [1] was 1.3 µg/kg; in experiment [4], 0.011 mg/kg. The IC50 in experiment [2] came to 0.44 nM; in experiment [3] it was 300 nM.

Take `O=C([C@@H]1CCc2cc(Cl)c(Cl)cc21)N1CCSC[C@H]1CN1CCCC1` [Corresponding (3R, 1R)]: the ED50 in experiment [1] was determined as 23900 µg/kg. The IC50 in experiment [2] turned out to be 3500 nM; in experiment [3], 32000 nM.

On to `O=C([C@H]1CCc2cc(Cl)c(Cl)cc21)N1CCSC[C@H]1CN1CCCC1` (relative stereo) [Racemate Corresponding to Compound of Example 1], for which the ED50 in experiment [4] is 0.18 mg/kg.

For the compound `O=C1CC[C@H](C(=O)N2CCSC[C@H]2CN2CCCCC2)c2cc(Cl)c(Cl)cc21` (relative stereo) [Racemate Corresponding to Compound of Example 3], the ED50 in experiment [4] was 1.22 mg/kg.
